The record followed here is patent publication US10774046B2, “Inhibitors for the treatment of cancer and related methods” (UNIVERSITY OF LOUISVILLE RESEARCH FOUNDATION, INC., priority 2017, dated 2020).

One experiment deals with PFK-1. In words: PFK-1 kinase activity. Type of experiment: biochemical. The settings on record: 10 μM.
Experiment [1] deals with LLC xenografts. In words: intratumoral F2,6BP. Particulars: 120 mg/kg by gavage daily, 10 days. It counts as in vivo, C57BL/6 mice. The protocol:
Cells or tissues were prepared as previously described and F2,6BP content measured using a coupled enzyme reaction following a modification of the method of Van Schaftingen et al (VAN SCHAFTINGEN E et al. “A kinetic study of pyrophosphate:fructose-6-phosphate phosphotransferase from potato tubers. Application to a microassay of fructose 2,6-bisphosphate” Eur J Biochem (1982) Vol. 129, No. 1, pp. 191-195) and normalized to total cellular protein measured by the bicinchoninic acid assay (BCA, Thermo Scientific). For example, H460 cells were exposed to the indicated concentrations of MPN-2. In order to measure F2,6BP, cells were harvested, washed with PBS, lysed in NaOH/Tris acetate by heating at 80° C. and lysates neutralized to pH 7.2. F2,6BP content was measured using a coupled enzyme reaction following a modified method of Van Schaftingen et al (VAN SCHAFTINGEN E et al. “A kinetic study of pyrophosphate:fructose-6-phosphate phosphotransferase from potato tubers. Application to a microassay of fructose 2,6-bisphosphate” Eur J Biochem (1982) Vol. 129, No. 1, pp. 191-195). The F2,6BP concentration was normalized to total cellular protein measured by the bicinchoninic acid assay (BCA, Thermo Scientific). All data are expressed as the mean±SD of three experiments. Statistical significance was assessed by the two-sample t test (independent variable). […]

Experiment [2] has as its system LLC xenografts. Kind of experiment: Ki67 immunohistochemistry of tumors. The settings on record: 120 mg/kg by gavage daily, ten days. Type of experiment: in vivo, C57BL/6 mice. How it is done:
Formalin-fixed, paraffin-embedded tissue sections were processed as previously described then incubated with anti-Ki-67 primary antibody (Abcam) overnight, followed by HRP-linked goat anti-rabbit secondary antibody (1:300, Pierce). Sections were developed with 3,3′-diaminobenzidine tetrahydrochloride, counterstained, scanned and analyzed with the positive pixel count algorithm as previously described. Data are depicted as % positive pixels/total pixels±SD.

The test system of a further experiment is cancer cells. Kind of experiment: glycolysis assay (3H2O from 5-[3H]glucose). It counts as cell-based. The settings on record: increasing concentrations. How it is done:
Method: To examine glycolysis, cells growing in 6-well plates were incubated in 500 μl of complete medium containing 1 μCi of 5-[^3H] glucose per well for 60 min in 5% CO2 at 37° C. The medium was then collected and centrifuged to pellet any suspended cells. To separate the ^3H2O formed via glycolysis from the 5-[^3H]glucose added to the medium, an evaporation technique in a sealed system was utilized. Briefly, 150 μl aliquots of medium were added to open tubes that were placed upright inside scintillation vials containing 1 ml of H2O. The scintillation vials were sealed, and the ^3H2O produced by glycolysis through enolase and released to the medium was allowed to equilibrate with the H2O in the outer vial for 48 h at 37° C. The amounts of ^3H2O that had diffused into the surrounding H2O was measured on a Tri-Carb 2910 liquid scintillation analyzer (Perkin Elmer) and compared with ^3H2O and 5-[^3H]glucose standards. Protein concentration was determined using the BCA assay and counts were normalized to protein concentration (previously described in CHESNEY et al., “Fructose-2,6-bisphosphate synthesis by 6-phosphofructo-2-kinase/fructose-2,6-bisphosphatase 4 (PFKFB4) is required for the glycolytic response to hypoxia and tumor growth” Oncotarget (2014) Vol. 5, No. 16, pp. 6670-6686, which is herein incorporated by reference in its entirety).

Turning to `COc1cccc2c(NCCCCCO[N+](=O)[O-])ccnc12` [5MPN, 5-[(8-methoxyquinolin-4-yl)amino]pentyl nitrate], the “inhibition of kinase activity” value in the experiment with PFK-1 is recorded as “did not inhibit”. Further, the “intratumoral F2,6BP” value in the experiment on LLC xenografts [1] is “reduction”. Moreover, the Ki67-positive cells result in the experiment on LLC xenografts [2] is on record as “reduction in Ki67-positive cells”.

On to `COc1cccc2c(NCCCCCNC(=O)C(F)(F)F)ccnc12` [Formula (VIII), 2,2,2-trifluoro-N-(5-((8-methoxyquinolin-4-yl)amino)pentyl)acetamide], for which, in the experiment on cancer cells, the “glycolysis (production of 3H2O relative to DMSO)” value is “dose-dependent decrease”.
